These results are taken from EP1180094B1, “FUSED POLYCYCLIC AMINO ACIDS AS PHARMACEUTICAL AGENTS” (WARNER-LAMBERT COMPANY, priority 1999, dated 2000).

Experiment [1] relates to Carrageenan Induced Thermal Hyperalgesia Model (rat). As to the kind of experiment: Carrageenan induced thermal hyperalgesia model. The experiment is classed as in vivo.
Experiment [2] concerns carrageenan-induced hyperalgesia model. Kind of experiment: Carrageenin-induced hyperalgesia, rat paw pressure test (Randall-Selitto). The experiment is classed as in vivo. To be noted: dosed orally at 30 mg/kg. The procedure: Nociceptive pressure thresholds were measured in the rat paw pressure test using an analgesimeter (Randall-Selitto method: Randall L.O. and Selitto J.J., "A method for measurement of analgesic activity on inflamed tissue," Arch. Int. Pharmacodyn., 1957;4:409-419). Male Sprague-Dawley rats (70-90 g) were trained on this apparatus before the test day. Pressure was gradually applied to the hind paw of each rat and nociceptive thresholds were determined as the pressure (g) required to elicit paw withdrawal. A cutoff point of 250 g was used to prevent any tissue damage to the paw. On the test day, two to three baseline measurements were taken before animals were administered 100 µL of 2% carrageenin by intraplantar injection into the right hind paw. […] Animals were dosed with either gabapentin ([…].), morphine (3 mg/kg, s.c.) or saline at 3.5 hours after carrageenin and nociceptive thresholds were examined at 4, 4.5, and 5 hours postcarrageenin.
(R)-2-Aza-spiro[4.5]decane-4-carboxylic acid hydrochloride was tested in the above carrageenan-induced hyperalgesia model. The compound was dosed orally at 30 mg/kg, and 1 hour postdose gave a percent of maximum possible effect (MPE) of 53%. At 2 hours postdose, it gave only 4.6% of MPE.
On the technique in general: The carrageenan paw model is a standard test of acute inflammation.

For the molecule `NCC1(CC(=O)O)Cc2ccccc2C1` [(2-aminomethyl-indan-2-yl)-acetic acid], the “Carrageenan Induced Thermal Hyperalgesia Model (rat). %MPE* at time postdose @30 mg/Kg p.o.” value in experiment [1] (1h postdose) is listed as 28.5 (1h) %MPE; in experiment [1] (2h postdose), 10 (2h) %MPE.
On to `Cl.O=C(O)[C@H]1CNCC12CCCCC2` [(R)-2-Aza-spiro[4.5]decane-4-carboxylic acid hydrochloride], for which the “percent of maximum possible effect (MPE)” value in experiment [2] (1 hour postdose) is recorded as 53%; in experiment [2] (2 hours postdose), 4.6%.
